Measurements published in article PMC4253628, “Antiviral effects against EV71 of pimprinine and its derivatives isolated from Streptomyces sp” (Virology Journal, 2014).

Legend:
HSV-1 [1] = assay: Virus yield reduction assay, HSV-1; format: cell-based, herpes simplex virus 1; details: Hep-2 cells, — = less than 90% inhibition
HSV-1 [2] = assay: Plaque reduction assay, HSV-1 in Hep-2 cells; details: for SI HSV-1, ratio CC50/EC50 / inhibition of HSV-1-induced plaque formation: Hep-2 cells; for EC50: Human alphaherpesvirus 1, HEp-2, read-out: EC50 HSV-1; for inhibition of HSV-1-induced plaque formation: inhibition achievable
Procedure: Confluent monolayers of Hep-2 cells, seeded in a 24-well plate, were infected with HSV-1 at a density of 60–80 plaque-forming units (PFU) per well and treated with media (pre-warmed DMEM containing 2% FBS, 0.8% low-melting agarose) mixed with or without the serially diluted tested compounds for the periods indicated following different procedures. The cells were incubated at 37°C until plaques appeared, followed by fixing with 10% formaldehyde and staining with 0.5% crystal violet. The plaques were counted by visual examination. The ratio of the number of plaques in the treated group to that in the untreated control was calculated.
A plaque reduction assay was performed to measure the inhibitory effects of the test compounds against HSV-1 infection.

[3] = Cytotoxicity, MTT method, Hep-2 cells; format: cell-based; details: human
Procedure: (§1) The 50% cell cytotoxic concentrations (CC50s) of compounds were calculated using SPSS software. SI were calculated from the ratio of CC50: EC50.

[4] = Cytotoxicity, MTT method, MDCK cells; format: cell-based, canine; details: dog, uninfected MDCK cells, host cells of H1N1: MDCK
Procedure: as §1

H1N1 [5] = assay: Inhibition of H1N1-induced CPE in MDCK cells; format: cell-based, influenza virus A/human/Hubei/86/2009 (H1N1); details: MDCK cells; for EC50: Influenza A virus, H1N1, read-out: EC50 H1N1
H1N1 [6] = assay: Virus yield reduction assay, H1N1; format: cell-based, influenza virus A/human/Hubei/86/2009 (H1N1); details: MDCK cells, — = less than 90% inhibition
Procedure: Virus yield reduction assays were also carried out to evaluate further the protective effects of the tested compounds.
The virus suspension, serially diluted 10-fold with DMEM containing 2% FBS, was inoculated to cells in a 96-well plate. After 1 h incubation at 37°C in 5% CO2, unbinding virus was washed out and DMEM maintenance medium supplemented with 2% FBS was added to the cells. After 2 days, the infected cells were monitored for cytopathic effects (CPEs). The virus titer was calculated by the Reed–Muench method.

EV71 [7] = assay: Progeny virus yield reduction, EV71 in RD cells; format: cell-based, Enterovirus 71; details: for reduction in progeny virus titers relative to virus control: 80 μM; for EC90: Enterovirus A, EV71, RD cells, progeny viral yield, read-out: EC90, compound concentration required to achieve 90% virus yield reduction
EV71 [8] = assay: Release analysis, EV71 from RD cells; format: cell-based, Enterovirus 71; details: 80 μM pimprinethine, 40 μM WS-30581 A or B; 12 h p.i.
[9] = Cytotoxicity, ATPLite luminescence-based assay, HeLa cells; format: cell-based; details: human
Excerpt: (§2) The ATPLite assay may be more sensitive to cytotoxicity than the MTT method. For RD and Hep-2 cells, similar results were obtained, and for HeLa and MDCK cells, the values of CC50 from the ATPLite assay were smaller than those from MTT assays (Tables 1, 2 and 3).

EV71 [10] = assay: Dependence of anti-EV71 activity on virus inoculum (cell viability, MTT) in RD cells; format: cell-based, Enterovirus 71; details: virus concentration above 10^4 TCID50
EV71 [11] = assay: Adsorption analysis, EV71 on RD cells; format: cell-based, Enterovirus 71; details: 160 μM pimprinethine, 80 μM WS-30581 A, 80 μM WS-30581 B; EV71 10^4 TCID50; 2 h adsorption
EV71 [12] = assay: microbe, parasite or virus in culture; details: Enterovirus A, EV71, RD, 48 h, read-out: EC50, compound concentration required to achieve 50% protection from virus-induced cytopathogenicity
Procedure: (§3) Cell viability was assessed by an MTT assay, which functions based on the reduction of a MTT into formazan dye by active mitochondria. The cells were treated with 100 μL of MTT (1 mg/mL, Sigma) and incubated at 37°C for 4 h. The reaction was blocked by DMSO and measured in a microplate reader (Bio-Tek Instruments) at 492 nm. The untreated control was arbitrarily set as 100%.
(§4) Confluent cell monolayers in 96-well dishes were infected with 100 TCID50 of corresponding virus dilution mixed with serial dilutions of tested compounds for 1 h at 37°C. Inocula were aspirated and the cells were then incubated with various concentrations of DMEM/tested compounds at 37°C, 5% CO2 for 48 h. CPE were observed microscopically and the viability of the cells was determined using MTT assays. […] The concentrations required for the tested compounds to achieve 50% protection of cells from virus-induced CPE were determined.

ADV-7 [13] = assay: Inhibition of ADV-7-induced CPE in HeLa cells; details: for SI ADV-7, ratio CC50/EC50: HeLa cells; for EC50: Human mastadenovirus B, HeLa, 48 h, read-out: EC50 ADV-7
Procedure: as §3, §4

[14] = Cytotoxicity, ATPLite luminescence-based assay, MDCK cells; format: cell-based, canine; details: dog
Excerpt: as §2

[15] = Cytotoxicity, MTT method, uninfected RD cells; format: cell-based; details: human
Procedure: as §1

EV71 [16] = assay: Effective stage analysis, EV71 in RD cells; format: cell-based, Enterovirus 71; details: 48 h; for virus titer reduction vs untreated cells: 80 μM, added post infection, EV71 100 TCID50; for viability at 80 µM: Enterovirus A, RD, added post infection (therapeutic), EV71 100 TCID50, read-out: viability rates of the infected cells
[17] = Cytotoxicity, MTT method, HeLa cells; format: cell-based; details: human
Procedure: as §1

[18] = Cytotoxicity, ATPLite luminescence-based assay, Hep-2 cells; format: cell-based; details: human
Excerpt: as §2

EV71 [19] = assay: Virucidal activity against EV71; format: cell-based, Enterovirus 71; details: 80 μM pimprinethine, 40 μM WS-30581 A or 40 μM WS-30581 B; 24 h at 4°C; 10^3 TCID50
ADV-7 [20] = assay: Virus yield reduction assay, ADV-7; format: cell-based, adenovirus 7; details: Human mastadenovirus B; HeLa cells; read-out: EC90 ADV-7, concentration required to inhibit 90% virus yield
CVB3 [21] = assay: Virus yield reduction assay, CVB3; format: cell-based, Coxsackievirus B3; details: Enterovirus B, CVB3; Hep-2 cells; — = less than 90% inhibition; read-out: EC90 CVB3, concentration required to inhibit 90% virus yield
CVB3 [22] = assay: Inhibition of CVB3-induced CPE in Hep-2 cells; details: for EC50: Enterovirus B, CVB3, HEp-2, 48 h, read-out: EC50 CVB3; for SI CVB3, ratio CC50/EC50: Hep-2 cells
Procedure: as §3, §4

[23] = Cytotoxicity, ATPLite luminescence-based assay, RD cells; format: cell-based; details: human
Excerpt: as §2

EV71 [24] = details: EV71, RD cells
Procedure: as §3, §4

CVB3 [25] = assay: Antiviral activity of MAO inhibitors against CVB3; format: cell-based, Coxsackievirus B3
EV71 [26] = assay: Antiviral activity of MAO inhibitors against EV71; format: cell-based, Enterovirus 71
[27] = 100 TCID50, 48 h, CPE, — = less than 50% inhibition
[28] = 100 TCID50 EV71, RD cells, 10 h
[29] = RD cells, MTT, 48 h, mean ± SD of three experiments, read-out: CC50, compound concentration required to reduce cell viability by 50%
[30] = uninfected HeLa cells, host cells of ADV-7: HeLa, MTT, 48 h, read-out: CC50 (ADV-7)
[31] = uninfected Hep-2 cells, host cells of CVB3: Hep-2, MTT, 48 h, read-out: CC50 (CVB3)

## Nc1nc2c(ncn2COCCO)c(=O)[nH]1 [Acyclovir, reference compound]
HSV-1 [1]; Human alphaherpesvirus 1, read-out: EC90 HSV-1, concentration required to inhibit 90% virus yield
  EC90: 24 ± 5 µM
HSV-1 [2]
  SI HSV-1, ratio CC50/EC50: >181
  EC50: 11 ± 1 µM
[3]
  CC50 at 48 h: > 2000 µM

## NC12CC3CC(CC(C3)C1)C2 [Amantadine, reference compound]
[4]
  CC50 at 48 h: > 2000 µM
H1N1 [5]; [27]
  EC50: 73 ± 8 µM
H1N1 [5]
  SI H1N1, ratio CC50/EC50: >27
H1N1 [6]; Influenza A virus, H1N1, read-out: EC90 H1N1, concentration required to inhibit 90% virus yield
  EC90: 90 ± 12 µM

## CCc1ncc(-c2c[nH]c3ccccc23)o1 [Pimprinethine]
EV71 [7]; [28]
  reduction in progeny virus titers relative to virus control: 3.0 log
EV71 [7]
  EC90: 42 ± 3 µM
[4]
  CC50 at 48 h: 577 ± 73 µM
EV71 [8]
  release of EV71 from RD cells: unaffected
[9]
  CC50: 550 ± 103 µM
EV71 [10]
  anti-EV71 inhibition at excessive virus inoculum: Inhibition was eliminated
EV71 [11]
  virus titer during virus attachment (adsorption): no significant decrease
EV71 [12]
  EC50: 35 ± 4 µM
ADV-7 [13]
  SI ADV-7, ratio CC50/EC50: 23
  EC50: 33 ± 6 µM
[14]
  CC50: 406 ± 48 µM
[15]; [29]
  CC50 at 48 h: 835 ± 20 µM
EV71 [16]
  virus titer reduction vs untreated cells: approximately 5.0 log
  viability at 80 µM: ~100%
HSV-1 [1]
  EC90 HSV-1, concentration required to inhibit 90% virus yield: — (—, less than 50% or 90% inhibition)
[17]; [30]
  CC50 at 48 h: 750 ± 30 µM
HSV-1 [2]
  SI HSV-1, ratio CC50/EC50: 6
  EC50: 45 ± 3 µM
  inhibition of HSV-1-induced plaque formation: approximately 80%
H1N1 [5]
  inhibition of H1N1 infection: negligible measurable inhibition
H1N1 [5]; [27]
  EC50 H1N1: — (—, less than 50% or 90% inhibition)
[18]
  CC50: 233 ± 36 µM
EV71 [19]
  virus titers of EV71 mixture with vs without compound (virucidal activity): No significant difference
ADV-7 [20]
  EC90: 63 ± 5 µM
CVB3 [21]
  EC90: 58 ± 9 µM
[3]; [31]
  CC50 at 48 h: 256 ± 49 µM
CVB3 [22]
  EC50: 22 ± 4 µM
  SI CVB3, ratio CC50/EC50: 12
H1N1 [6]
  EC90 H1N1, concentration required to inhibit 90% virus yield: — (—, less than 50% or 90% inhibition)
[23]
  CC50: 656 ± 82 µM
EV71 [24]
  SI (selectivity index), ratio CC50/EC50: 24

## NC(=O)c1ncn([C@@H]2O[C@H](CO)[C@@H](O)[C@H]2O)n1 [Ribavirin, reference compound]
EV71 [7]; 160 μM, 100 TCID50 EV71, RD cells, 10 h
  reduction in progeny virus titers: ~2.0 log
EV71 [7]
  EC90: 136 ± 49 µM
EV71 [11]
  virus titer during virus attachment (adsorption): no significant decrease
EV71 [12]
  EC50: 102 ± 68 µM
ADV-7 [13]
  SI ADV-7, ratio CC50/EC50: 13
  EC50: 116 ± 19 µM
[15]
  CC50 at 48 h: 1230 ± 355 µM
[17]
  CC50 at 48 h: 1520 ± 243 µM
ADV-7 [20]
  EC90: 132 ± 22 µM
CVB3 [21]
  EC90: 103 ± 17 µM
[3]
  CC50 at 48 h: 1310 ± 385 µM
CVB3 [22]
  EC50: 90 ± 10 µM
  SI CVB3, ratio CC50/EC50: 15
EV71 [24]
  SI (selectivity index), ratio CC50/EC50: 12

## N[C@@H]1C[C@H]1c1ccccc1 [TCP]
CVB3 [25]
  antiviral activity against CVB3: inactive
EV71 [26]
  antiviral activity against EV71: inactive

## CCCCc1ncc(-c2c[nH]c3ccccc23)o1 [WS-30581 B]
EV71 [7]; [28]
  reduction in progeny virus titers relative to virus control: 3.0 log
EV71 [7]
  EC90: 18 ± 2 µM
[4]
  CC50 at 48 h: 215 ± 28 µM
EV71 [8]
  release of EV71 from RD cells: unaffected
EV71 [10]
  anti-EV71 inhibition at excessive virus inoculum: Inhibition was eliminated
EV71 [11]
  virus titer during virus attachment (adsorption): no significant decrease
EV71 [12]
  EC50: 11 ± 3 µM
ADV-7 [13]
  SI ADV-7, ratio CC50/EC50: 24
  EC50: 15 ± 2 µM
[15]; [29]
  CC50 at 48 h: 229 ± 10 µM
EV71 [16]
  virus titer reduction vs untreated cells: approximately 5.0 log
  viability at 80 µM: ~100%
HSV-1 [1]
  EC90 HSV-1, concentration required to inhibit 90% virus yield: — (—, less than 50% or 90% inhibition)
[17]; [30]
  CC50 at 48 h: 354 ± 14 µM
HSV-1 [2]
  SI HSV-1, ratio CC50/EC50: 6
  EC50: 14 ± 4 µM
  inhibition of HSV-1-induced plaque formation: approximately 80%
H1N1 [5]; [27]
  EC50: 24 ± 5 µM
H1N1 [5]
  SI H1N1, ratio CC50/EC50: 9
  inhibition of H1N1 infection: less than 70%
EV71 [19]
  virus titers of EV71 mixture with vs without compound (virucidal activity): No significant difference
ADV-7 [20]
  EC90: 48 ± 6 µM
CVB3 [21]
  EC90: 42 ± 6 µM
[3]; [31]
  CC50 at 48 h: 83 ± 6 µM
CVB3 [22]
  EC50: 12 ± 2 µM
  SI CVB3, ratio CC50/EC50: 7
H1N1 [6]
  EC90 H1N1, concentration required to inhibit 90% virus yield: — (—, less than 50% or 90% inhibition)
[23]
  CC50: 267 ± 31 µM
EV71 [24]
  SI (selectivity index), ratio CC50/EC50: 21

## C#CCN(C)Cc1ccccc1 [pargyline]
CVB3 [25]
  antiviral activity against CVB3: inactive
EV71 [26]
  antiviral activity against EV71: inactive
